Source: US12208118B2, “Pharmaceutical compositions for delivery of peptide” (ANYA BIOPHARM INC., priority 2017, dated 2025)

Assays:
Human Carboxypeptidase B = target: T1, Human Carboxypeptidase B (Homo sapiens, UniProt P15086); experiment: Oxidative inactivation of Carboxypeptidase by combinations of metal salts and reducing agents (enzymatic activity); type: biochemical; conditions: reducing agent 1 mM, metal salt 5 μM, compared with original activity, in % (unit assumed)
T1 sequence (P15086 111-417): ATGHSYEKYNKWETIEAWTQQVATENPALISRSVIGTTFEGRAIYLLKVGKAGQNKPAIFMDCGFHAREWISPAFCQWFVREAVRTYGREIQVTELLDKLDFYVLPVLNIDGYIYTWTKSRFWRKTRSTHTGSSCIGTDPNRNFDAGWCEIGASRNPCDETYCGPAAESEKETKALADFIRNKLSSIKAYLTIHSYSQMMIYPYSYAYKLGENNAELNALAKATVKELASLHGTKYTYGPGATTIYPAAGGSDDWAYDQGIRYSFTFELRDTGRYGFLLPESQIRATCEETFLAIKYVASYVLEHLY
Protocol: (§1) Enzyme Activity Assay: The assay of enzymatic activity of each enzyme in the presence of its specific substrate was performed at a particular wavelength by using UV spectrophotometer, and it served as a negative control. The enzyme activity was calculated as: […]
(§2) Enzyme Inhibition Assay: Incubation was performed with inhibitor of each enzyme, which served as a positive control.
(§3) Incubation with metal ion(s) and reducing agent(s): Incubation of enzymes with combination of metal salt(s) and reducing agent(s) in microtitre 96 well plate was done for a specific period of time in presence of substrates to examine their oxidative inactivation. Inactivation of enzyme in presence of metal ion(s) and reducing agent(s) was compared with the original enzyme activity in the presence of substrate as a negative control and in the presence of inhibitor as a positive control.
Assay for Enzymatic Activity of Carboxypeptidase B Using Hippuryl-Arginine
4 units of Carboxypeptidase B in cold deionized water, 1 mm Hippuryl-Arginine solution in 25 mM Iris Buffer solution containing 100 mM Sodium Chloride (pH 7.65) were prepared, separately at about 25° C. 3 ml reaction mixtures (Test and blank) were prepared using above prepared solutions according to Table 9 at 25° C. […]
(§4) For a 200 μl reaction mixture, about 10 μl Carboxypeptidase was incubated in buffer with the combination of metal salts and reducing agents (provided in Table 2 at serial number 1 through 31) at respective concentration at 37° C. in 96 well microtitre plates (Table 3 hereinabove provides details on utilization of a particular combination from those provided at serial number 1 through 31 in Table 2) for 5 min, 15 min and 30 min followed by the addition of respective 90 μl substrate (provided in Table 1A). The enzyme activity was measured spectrophotometrically in a microplate reader, and was compared with original activity assay. The pH was measured by Hanna Combination pH electrode (reaction with enzyme was performed in triplicates). […]

Porcine Aminopeptidase M = target: T2, Porcine Aminopeptidase M (Sus scrofa, UniProt P15145); experiment: Oxidative inactivation of Aminopeptidase by combinations of metal salts and reducing agents (enzymatic activity); type: biochemical; conditions: compared with original activity, in % (unit assumed)
T2 sequence (P15145 1-963): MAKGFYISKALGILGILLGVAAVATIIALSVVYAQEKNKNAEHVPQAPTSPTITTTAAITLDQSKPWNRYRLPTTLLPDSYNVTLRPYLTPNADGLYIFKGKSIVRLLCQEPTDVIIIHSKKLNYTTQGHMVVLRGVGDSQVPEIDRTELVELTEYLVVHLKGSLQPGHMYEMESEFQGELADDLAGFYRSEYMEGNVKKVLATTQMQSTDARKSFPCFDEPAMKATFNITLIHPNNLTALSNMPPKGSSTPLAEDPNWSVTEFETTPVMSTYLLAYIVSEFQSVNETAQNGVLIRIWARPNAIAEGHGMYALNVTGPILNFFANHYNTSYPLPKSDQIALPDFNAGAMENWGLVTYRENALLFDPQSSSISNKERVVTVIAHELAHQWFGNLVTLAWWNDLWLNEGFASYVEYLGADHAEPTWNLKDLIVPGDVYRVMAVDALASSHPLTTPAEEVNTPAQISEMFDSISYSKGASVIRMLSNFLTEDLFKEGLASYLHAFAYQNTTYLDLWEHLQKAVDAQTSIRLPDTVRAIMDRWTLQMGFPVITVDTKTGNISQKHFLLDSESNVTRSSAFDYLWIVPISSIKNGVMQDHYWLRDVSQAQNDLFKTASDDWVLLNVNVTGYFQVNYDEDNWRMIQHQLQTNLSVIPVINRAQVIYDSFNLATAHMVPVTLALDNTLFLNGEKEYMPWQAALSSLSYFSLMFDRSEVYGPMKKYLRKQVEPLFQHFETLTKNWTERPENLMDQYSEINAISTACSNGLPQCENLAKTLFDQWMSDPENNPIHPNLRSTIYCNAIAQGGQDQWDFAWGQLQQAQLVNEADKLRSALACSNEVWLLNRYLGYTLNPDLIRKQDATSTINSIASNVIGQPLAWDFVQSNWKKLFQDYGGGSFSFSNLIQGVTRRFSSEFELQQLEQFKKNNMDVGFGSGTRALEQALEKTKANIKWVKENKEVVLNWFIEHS
Protocol: as §1, §2, §3
To Assay the Enzymatic Activity of Aminopeptidase M Using L-Leucine-p-Nitroanilide
1 mM Tricine solution (Prepared in 100 ml deionized water, Reagent A) and 50 mM L-Leucine-p-nitroanilide solution in absolute methanol (Reagent B) were prepared, separately. […] Reagent G, Reagent E and Reagent F were mixed immediately by inversion to prepare test and blank solution as directed in table 12, and the increase in ΔA405 nm was recorded for approximately 5 minutes. ΔA405 nm/minute was obtained using maximum linear rate for both the Test and blank solution. […]
as §4, with “Aminopeptidase” for “Carboxypeptidase”, “assay.” for “assay. The pH was measured by Hanna Combination pH electrode (reaction with enzyme was performed in triplicates).”

[1] = tested on: STZ induced diabetic S.D. rats; experiment: Glucose level in STZ induced diabetic rats after different formulations (Glucometer, % inhibition); type: in vivo; conditions: glucose by Glucometer
Protocol: (§5) Quantification of Glucose & Insulin Glargine Level in STZ Induced Diabetic Rat Plasma
(§6) Glucose & insulin glargine levels in plasma were quantified after dosing several formulations of insulin glargine to mid-jejunum in STZ induced diabetic S.D. rats.
(§7) Test formulation I: Insulin glargine (Lantus®)—Appearance: Solution for injection in a prefilled pen; Concentration: 100 IU/ml; Storage condition: 2-8° C.; Dose: 0.2 U/kg; Route: SC.
(§8) Test formulation II: Insulin glargine Formulation—MIRA 1 (Reduced glutathione/Chromium Picolinate of Table 15A)+Permeation Enhancer 1 (PA 1 of Table 16A) (oral solution in TRIS buffer)—Dose: 1.7 U/animal; Route: mid-jejunum
(§9) Test formulation III: Insulin glargine Formulation—PA 2 (of Table 16B) and MIRA 2 (Ascorbate Sodium/Vanadium Oxide of Table 15B) (oral solution in TRIS buffer)—Dose: 1.7 U/animal; Route: mid-jejunum.
The clinical signs observed are normal. With respect to sampling time points, during dosing, the blood collection time points was at 0, 20, 40, 60, 120 and 150 minutes post dose. ˜100 μl of blood was collected in a pre-filled Na-EDTA eppendorf, from retro-orbital sinus puncture. Blood was centrifuged at 5000 rpm, 5 min, 4° c. to obtain plasma. Glucose was measured immediately after blood collection using Glucometer.

[2] = Quantification of insulin glargine level in STZ induced diabetic rat plasma (Glargine ELISA), bioavailability; type: in vivo, S.D. rats; conditions: following subcutaneous and mid-jejunum administration, rats
Protocol: as §5, §6, §7, §8, §9
The clinical signs observed are normal. […] Glucose was measured immediately after blood collection using Glucometer. […]
Principle: This Glargine ELISA is a two-site immunoassay, employing a monoclonal antibody immobilised on microtitre wells and a soluble antibody labelled with horseradish peroxidase (HRP). […] The intensity of the colour developed in each well is quantified in a microtitre plate reader set to record transmitted light at a wavelength of 450 nm (Kit Protocol: Used manufacturer recommended protocol Cat. No. MBS495369) […]

Row | Enzymatic activity of Carboxypeptidase (Human Carboxypeptidase B; incubation 5 min at 37° C.) | Enzymatic activity of Carboxypeptidase (Human Carboxypeptidase B; incubation 15 min at 37° C.) | Enzymatic activity of Carboxypeptidase (Human Carboxypeptidase B; incubation 30 min at 37° C.) | Enzymatic activity of Aminopeptidase (Porcine Aminopeptidase M; Time 5 min incubation at 37° C.) | Enzymatic activity of Aminopeptidase (Porcine Aminopeptidase M; Time 15 min incubation at 37° C.) | Enzymatic activity of Aminopeptidase (Porcine Aminopeptidase M; Time 30 min incubation at 37° C.) | Molecule | % inhibition ([1]; 20 min post dose) [%] | % inhibition ([1]; 40 min post dose) [%] | % inhibition ([1]; 60 min post dose) [%] | % inhibition ([1]; 120 min post dose) [%] | % inhibition ([1]; 150 min post dose) [%] | clinical signs [2] | mortality [2]
1 | 104.5 | 91.7 | 62.26 | 108 | 100.4 | 80.52 | O=C(/C=C/C=C/c1ccc2c(c1)OCO2)N1CCCCC1 [Piperine] | – | – | – | – | – | – | –
2 | – | – | – | – | – | – | Insulin glargine | 22.9 | 25.5 | 22 | 39 | 17.2 | normal | no mortality observed
